Source: patent US9932314B2, “Pyrazole compounds and their use as T-type calcium channel blockers” (IDORSIA PHARMACEUTICALS LTD, priority 2015, dated 2018)

Target: T1, voltage-dependent T-type calcium channel subunit alpha-1G (Cav3.2) (Homo sapiens, UniProt O95180)
T1 construct: expressed in transfected cells; host or cells: HEK293
Test: FLIPR calcium flux assay, HEK293 cells recombinantly expressing Cav3.2
Format: cell-based
Conditions: Cav3.2-channel, Fluo-4-AM, 3 min incubation, stimulation with 10 mM CaCl2
Procedure: In Vitro Methods—Measurement of Calcium Channel Flux by Means of FLIPR Assays.
HEK293 cells recombinantly expressing either voltage-dependent T-type calcium channel subunit […] (Cav3.2) or voltage-dependent L-type calcium channel subunit alpha-1C (Cav1.2) are assayed for calcium flux using the calcium indicator dye Fluo-4-AM (Molecular Devices) and FLIPR technology (Fluorometric Imaging Plate Reader, Molecular Devices) (Xie X, Van Deusen A L, Vitko I, Babu D A, Davies L A, Huynh N, Cheng H, Yang N, Barrett P Q, Perez-Reyes E. Validation of high throughput screening assays against three subtypes of Ca(v)3 T-type channels using molecular and pharmacologic approaches. Assay and Drug Development Technologies 2007, 5(2), 191-203). The HEK293 cells recombinantly expressing Cav3.2 are maintained in DMEM growth medium (Life Technologies) supplemented with 10% Fetal Bovine Serum (FBS), 100 U/ml penicilin (Life Technologies), 100 μg/ml streptomycin (Life Technologies) and 1 mg/ml G418 (Life Technologies). HEK293 cells recombinantly expressing Cav1.2 are maintained in DMEM growth medium (Life technologies) supplemented with 10% FBS, 0.1 mg/ml G418 (Life Technologies), 0.1 mg/ml hygromycin (Life Technologies) and 40 ug/ml zeocin (Life Technologies).
The seeded plates are incubated overnight at 37° C.
The cells are then washed three times with assay buffer (HBSS 1×; 0.375 g/L NaHCO3; 20 mM Hepes; 1% FBS; pH 7.4) and allowed to rest in 50 μl of wash buffer for 30 minutes.
Stock solutions of test compounds are prepared to a concentration of 10 mM in DMSO. For the Cav3.2 assay, serial dilutions of the compounds are prepared in TEAC buffer (100 mM tetraethylammonium chloride; 20 mM Hepes; 2.5 mM CaCl2; 5 mM KCl; 1 mM MgCl2; 1% FBS; pH 7.2), for the Cav1.2 assay serial dilutions are prepared in assay buffer. […] The compounds are incubated with the cells for 3 minutes and Ca2+ entry is stimulated by adding either CaCl2 to a final concentration of 10 mM (Cav3.2 assay) or by adding KCl to a final concentration of 20 mM (Cav1.2 assay). The kinetics of fluorescence increase are recorded for every well and the area under the fluorescence trace for every compound concentration is used to generate inhibition curves using non-linear regression sigmoidal concentration-response curve analysis with in-house software.

T1 sequence (O95180 whole entry): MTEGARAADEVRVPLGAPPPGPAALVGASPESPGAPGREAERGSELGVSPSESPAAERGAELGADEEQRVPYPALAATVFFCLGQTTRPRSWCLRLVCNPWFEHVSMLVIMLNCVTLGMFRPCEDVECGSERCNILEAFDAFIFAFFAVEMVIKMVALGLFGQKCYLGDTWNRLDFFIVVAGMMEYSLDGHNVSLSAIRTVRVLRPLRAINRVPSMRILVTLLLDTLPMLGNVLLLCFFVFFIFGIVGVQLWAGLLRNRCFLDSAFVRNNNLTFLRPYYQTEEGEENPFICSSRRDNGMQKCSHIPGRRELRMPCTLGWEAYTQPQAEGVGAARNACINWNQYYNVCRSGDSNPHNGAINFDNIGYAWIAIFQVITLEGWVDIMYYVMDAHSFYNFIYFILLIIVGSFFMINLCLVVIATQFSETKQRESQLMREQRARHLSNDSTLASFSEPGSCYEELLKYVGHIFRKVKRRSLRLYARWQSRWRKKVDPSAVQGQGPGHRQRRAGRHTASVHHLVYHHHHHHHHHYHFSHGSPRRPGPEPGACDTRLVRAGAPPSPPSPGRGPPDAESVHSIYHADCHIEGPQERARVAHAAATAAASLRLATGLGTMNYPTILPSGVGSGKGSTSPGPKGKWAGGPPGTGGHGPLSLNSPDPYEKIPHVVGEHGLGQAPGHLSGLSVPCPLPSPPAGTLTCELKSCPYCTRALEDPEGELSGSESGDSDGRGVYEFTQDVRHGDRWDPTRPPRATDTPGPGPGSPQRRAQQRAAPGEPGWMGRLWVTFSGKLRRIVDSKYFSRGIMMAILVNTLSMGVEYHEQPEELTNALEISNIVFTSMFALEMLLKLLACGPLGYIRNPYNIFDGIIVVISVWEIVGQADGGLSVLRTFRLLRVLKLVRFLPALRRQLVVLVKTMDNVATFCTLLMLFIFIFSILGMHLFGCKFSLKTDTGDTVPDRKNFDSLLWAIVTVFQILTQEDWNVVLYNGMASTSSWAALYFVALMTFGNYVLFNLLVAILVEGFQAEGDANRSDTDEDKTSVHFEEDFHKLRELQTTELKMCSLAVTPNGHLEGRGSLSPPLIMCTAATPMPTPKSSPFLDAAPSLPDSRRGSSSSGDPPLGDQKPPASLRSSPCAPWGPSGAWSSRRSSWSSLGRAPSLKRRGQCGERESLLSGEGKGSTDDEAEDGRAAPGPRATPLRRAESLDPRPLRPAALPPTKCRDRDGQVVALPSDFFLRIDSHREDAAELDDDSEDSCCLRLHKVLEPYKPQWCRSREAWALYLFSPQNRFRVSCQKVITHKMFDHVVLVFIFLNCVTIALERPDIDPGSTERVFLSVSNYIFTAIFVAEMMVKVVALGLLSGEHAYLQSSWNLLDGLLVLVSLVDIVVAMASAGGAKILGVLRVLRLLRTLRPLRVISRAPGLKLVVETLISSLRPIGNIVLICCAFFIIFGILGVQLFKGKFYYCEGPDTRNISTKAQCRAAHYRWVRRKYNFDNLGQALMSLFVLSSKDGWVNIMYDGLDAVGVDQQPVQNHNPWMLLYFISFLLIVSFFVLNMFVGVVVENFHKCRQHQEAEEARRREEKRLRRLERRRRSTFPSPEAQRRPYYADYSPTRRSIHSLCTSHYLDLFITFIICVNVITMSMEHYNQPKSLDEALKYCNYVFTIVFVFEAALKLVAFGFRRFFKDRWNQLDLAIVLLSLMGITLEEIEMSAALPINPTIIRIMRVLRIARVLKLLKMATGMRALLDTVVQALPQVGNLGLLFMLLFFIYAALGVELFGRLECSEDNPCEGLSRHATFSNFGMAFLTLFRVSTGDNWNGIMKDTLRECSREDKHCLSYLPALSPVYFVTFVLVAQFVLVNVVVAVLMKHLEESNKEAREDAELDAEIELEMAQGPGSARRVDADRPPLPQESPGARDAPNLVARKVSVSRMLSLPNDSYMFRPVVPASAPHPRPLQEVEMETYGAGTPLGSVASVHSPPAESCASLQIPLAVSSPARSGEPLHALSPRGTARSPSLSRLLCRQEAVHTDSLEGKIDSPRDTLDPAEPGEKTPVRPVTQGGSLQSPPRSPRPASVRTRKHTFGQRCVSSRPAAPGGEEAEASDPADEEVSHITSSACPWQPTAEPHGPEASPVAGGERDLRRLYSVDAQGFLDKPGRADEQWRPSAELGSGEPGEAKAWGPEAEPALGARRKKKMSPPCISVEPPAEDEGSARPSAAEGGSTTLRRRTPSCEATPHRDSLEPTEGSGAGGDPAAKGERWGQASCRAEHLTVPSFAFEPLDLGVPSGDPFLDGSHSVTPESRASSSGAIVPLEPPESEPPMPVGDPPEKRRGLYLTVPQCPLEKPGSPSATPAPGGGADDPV

Compound	IC50
COC(C)c1ccc(CC(=O)Nc2ccn(Cc3ccc(F)cc3)n2)cc1 (racemic) [Example 201, rac-N-[1-(4-Fluoro-benzyl)-1H-pyrazol-3-yl]-2-[4-(1-methoxy-ethyl)-phenyl]-acetamide]	30 nM
COC(C)c1ccc(CC(=O)Nc2ccn(Cc3ccc(F)c(F)c3)n2)cc1 (racemic) [Example 202, rac-N-[1-(3,4-Difluoro-benzyl)-1H-pyrazol-3-yl]-2-[4-(1-methoxy-ethyl)-phenyl]-acetamide]	16 nM
COC(C)c1ccc(CC(=O)Nc2ccn(Cc3ccc(C#N)cc3)n2)cc1 (racemic) [Example 320, rac-N-[1-(4-Cyano-benzyl)-1H-pyrazol-3-yl]-2-[4-(1-methoxy-ethyl)-phenyl]-acetamide]	99 nM
N#Cc1ccc(Cn2ccc(NC(=O)Cc3ccc([C@@H]4C[C@H]4C(F)(F)F)cc3)n2)nc1 (racemic) [Example 383, rac-N-[1-(5-Cyano-pyridin-2-ylmethyl)-1H-pyrazol-3-yl]-2-[4-((1R*,2R*)-2-trifluoromethyl-cyclopropyl)-phenyl]-acetamide]	36 nM
CO[C@H](C)c1ccc(CC(=O)Nc2ccn(Cc3ccc(F)c(F)c3)n2)cc1 (single isomer, unassigned) [Example 232]	5.8 nM
CC(C)c1ccc(CC(=O)Nc2ccn(Cc3ccc(Cl)cc3)n2)cc1 [Example 1, N-[1-(4-Chloro-benzyl)-1H-pyrazol-3-yl]-2-(4-isopropyl-phenyl)-acetamide]	14 nM
CN(C)c1ccc(CC(=O)Nc2ccn(Cc3ccc(F)cc3)n2)cn1 [Example 4, 2-(6-Dimethylamino-pyridin-3-yl)-N-[1-(4-fluoro-benzyl)-1H-pyrazol-3-yl]-acetamide]	82 nM
CN(C)c1ccc(CC(=O)Nc2ccn(Cc3ccc(Cl)cc3)n2)cn1 [Example 5, N-[1-(4-Chloro-benzyl)-1H-pyrazol-3-yl]-2-(6-dimethylamino-pyridin-3-yl)-acetamide]	20 nM
CC(C)c1ccc(CC(=O)Nc2ccn(Cc3ccc(F)cc3)n2)cc1 [Example 6, N-[1-(4-Fluoro-benzyl)-1H-pyrazol-3-yl]-2-(4-isopropyl-phenyl)-acetamide]	6.6 nM
CC(C)c1ccc(CC(=O)Nc2ccn(Cc3ccc(C#N)cc3)n2)cc1 [Example 11, N-[1-(4-Cyano-benzyl)-1H-pyrazol-3-yl]-2-(4-isopropyl-phenyl)-acetamide]	5.4 nM
Cc1ccc(Cn2ccc(NC(=O)Cc3ccc(N(C)C)nc3)n2)cc1 [Example 13, 2-(6-Dimethylamino-pyridin-3-yl)-N-[1-(4-methyl-benzyl)-1H-pyrazol-3-yl]-acetamide]	133 nM
COc1ccc(Cn2ccc(NC(=O)Cc3ccc(N(C)C)nc3)n2)cc1 [Example 14, 2-(6-Dimethylamino-pyridin-3-yl)-N-[1-(4-methoxy-benzyl)-1H-pyrazol-3-yl]-acetamide]	650 nM
CN(C)c1ccc(CC(=O)Nc2ccn(Cc3ccc(C#N)cc3)n2)cn1 [Example 15, N-[1-(4-Cyano-benzyl)-1H-pyrazol-3-yl]-2-(6-dimethylamino-pyridin-3-yl)-acetamide]	374 nM
CCc1ccc(Cn2ccc(NC(=O)Cc3ccc(N(C)C)cc3)n2)cc1 [Example 16, 2-(4-Dimethylamino-phenyl)-N-[1-(4-ethyl-benzyl)-1H-pyrazol-3-yl]-acetamide]	10 nM
CC(C)c1ccc(Cn2ccc(NC(=O)Cc3ccc(N(C)C)cc3)n2)cc1 [Example 17, 2-(4-Dimethylamino-phenyl)-N-[1-(4-isopropyl-benzyl)-1H-pyrazol-3-yl]-acetamide]	12 nM
CN(C)c1ccc(CC(=O)Nc2ccn(Cc3ccc(Cl)c(F)c3)n2)cc1 [Example 26, N-[1-(4-Chloro-3-fluoro-benzyl)-1H-pyrazol-3-yl]-2-(4-dimethylamino-phenyl)-acetamide]	5.4 nM
CN(C)c1ccc(CC(=O)Nc2ccn(Cc3ccc(Cl)c(C(F)(F)F)c3)n2)cc1 [Example 27, N-[1-(4-Chloro-3-trifluoromethyl-benzyl)-1H-pyrazol-3-yl]-2-(4-dimethylamino-phenyl)-acetamide]	61 nM
COc1ccc(Cn2ccc(NC(=O)Cc3ccc(N(C)C)cc3)n2)cc1C(F)(F)F [Example 29, 2-(4-Dimethylamino-phenyl)-N-[1-(4-methoxy-3-trifluoromethyl-benzyl)-1H-pyrazol-3-yl]-acetamide]	25 nM
Cc1cc(Cn2ccc(NC(=O)Cc3ccc(N(C)C)cc3)n2)ccc1F [Example 30, 2-(4-Dimethylamino-phenyl)-N-[1-(4-fluoro-3-methyl-benzyl)-1H-pyrazol-3-yl]-acetamide]	8.6 nM

More lines, in order of falling IC50, values ahead:

IC50	Compound
1260 nM	COC(C)c1ccc(CC(=O)Nc2ccn(Cc3ccc(C#N)cn3)n2)cc1 (racemic) [Example 203, rac-N-[1-(5-Cyano-pyridin-2-ylmethyl)-1H-pyrazol-3-yl]-2-[4-(1-methoxy-ethyl)-phenyl]acetamide]
66 nM	COC(C)c1ccc(CC(=O)Nc2ccn(Cc3ccc(F)c(C#N)c3)n2)cc1 (racemic) [Example 319, rac-N-[1-(3-Cyano-4-fluoro-benzyl)-1H-pyrazol-3-yl]-2-[4-(1-methoxy-ethyl)-phenyl]-acetamide]
64 nM	Cc1cc(Cn2ccc(NC(=O)Cc3ccc(N(C)C)cc3)n2)cc(C)c1F [Example 25, 2-(4-Dimethylamino-phenyl)-N-[1-(4-fluoro-3,5-dimethyl-benzyl)-1H-pyrazol-3-yl]-acetamide]
30 nM	CC1COc2cc(CC(=O)Nc3ccn(Cc4ccc(C#N)cn4)n3)ccc2C1 (racemic) [Example 388, rac-N-[1-(5-Cyano-pyridin-2-ylmethyl)-1H-pyrazol-3-yl]-2-(3-methyl-chroman-7-yl)-acetamide]
25 nM	CN(C)c1ccc(CC(=O)Nc2ccn(Cc3ccc(C(C)(C)C)cc3)n2)cc1 [Example 18, N-[1-(4-tert-Butyl-benzyl)-1H-pyrazol-3-yl]-2-(4-dimethylamino-phenyl)-acetamide]
13 nM	CN(C)c1ccc(CC(=O)Nc2ccn(Cc3cc(F)c(F)c(F)c3)n2)cc1 [Example 24, 2-(4-Dimethylamino-phenyl)-N-[1-(3,4,5-trifluoro-benzyl)-1H-pyrazol-3-yl]-acetamide]
12 nM	Cc1ccc(Cn2ccc(NC(=O)Cc3ccc(C(C)C)cc3)n2)cc1 [Example 9, 2-(4-Isopropyl-phenyl)-N-[1-(4-methyl-benzyl)-1H-pyrazol-3-yl]-acetamide]
8.1 nM	CO[C@@H](C)c1ccc(CC(=O)Nc2ccn(Cc3ccc(F)c(F)c3)n2)cc1 (single isomer, unassigned) [Example 233]
7.9 nM	COc1ccc(Cn2ccc(NC(=O)Cc3ccc(C(C)C)cc3)n2)cc1 [Example 7, 2-(4-Isopropyl-phenyl)-N-[1-(4-methoxy-benzyl)-1H-pyrazol-3-yl]-acetamide]
6.4 nM	CN(C)c1ccc(CC(=O)Nc2ccn(Cc3ccc(F)c(C(F)(F)F)c3)n2)cc1 [Example 23, 2-(4-Dimethylamino-phenyl)-N-[1-(4-fluoro-3-trifluoromethyl-benzyl)-1H-pyrazol-3-yl]-acetamide]
5 nM	CN(C)c1ccc(CC(=O)Nc2ccn(Cc3ccc(F)c(OC(F)(F)F)c3)n2)cc1 [Example 22, 2-(4-Dimethylamino-phenyl)-N-[1-(4-fluoro-3-trifluoromethoxy-benzyl)-1H-pyrazol-3-yl]-acetamide]
